Experimental data: US20250368666A1, “INDAZOLE COMPOUNDS” (TYRA BIOSCIENCES, INC., priority 2022, published 2025)

Legend:
[1] = test system: KG-1 cell line (FGFR 1-fusion); assay: Cancer cell line cell viability assay (Cell Titer-Glo), 72 hr; type: cell-based; conditions: Homo sapiens, KG-1, KG-1 cell line (FGFR1-fusion)
Source text: (§1) Experimental Purpose: To detect the change of intracellular ATP by Cell Titer-Glo® and to evaluate the inhibitory effect of the compounds on cancer cell lines by determining the in vitro IC50 value of the compounds.
(§2) Cell Titer-Glo® 2.0 Luminescent cell viability assay reagent was purchased from Promega (Madison, WI). KG-1, KATO-III, and MDA-MB-453 cell lines were purchased from American Type Culture Collection (Manassas, VA). RT112/84 cell line was purchased from Millipore-Sigma (St. Louis, MO). HuH7 cells were purchased from Seikisui Xenotech (Kansas City, KS). RT112/84 and MDA-MB-453 cells were cultured in RPMI1640 media supplemented with 10% fetal bovine serum. KG-1 and KATO-III cell lines were cultured in IMDM media supplemented with 20% FBS. HuH7 cells were cultured in IMDM media supplemented with 10% FBS. Cultures were maintained at 37° C. in a humidified atmosphere of 5% CO2 and 95% air.
(§3) Cell Viability Assay Procedure: Cells were plated in 96-well clear bottom/white plates (Corning #3903) at a range of densities depending on the optimal assay window (5,000-20,000 cells/well in […] of media), incubated overnight. The next day, test compound DMSO stock solutions were made at 10 mM and […] final concentration. Compounds were then added to cells in a 9-dose, 4-fold dilution series starting at 3 μM with an HP 300e Digital Dispenser (each dose was applied in triplicate). DMSO was backfilled to each well up to 301 nL total volume of test compound+DMSO, and a total of 301 nL DMSO was added to a control/no test compound well in triplicate. The cells in cell culture plates were incubated with the compounds at 37° C. and 5% CO2 for 72 hours-120 hours depending on the cell line. Then 50 μl of Cell Titer Glo 2.0 reagent was added to each well of the cell culture plates. The contents were covered from light and mixed on an orbital shaker at room temperature for minimum of 10 min. Luminescence was recorded by a Clariostar Plus Microplate Reader (BMG Labtech, Cary, NC). Cells were assessed as a percentage of DMSO only treated control cells. Curves were plotted and IC50 values were calculated using the GraphPad Prism 9 program based on a sigmoidal dose-response equation (log (inhibitor) vs. response—Variable slope, 4-parameter).

[2] = test system: KATO-III cell line (FGFR2 amplification); assay: as above; type: cell-based; conditions: Homo sapiens, KATO III
Source text: as §1, §2, §3

[3] = test system: RT112/84 cell line (FGFR3-fusion); assay: as above; type: cell-based; conditions: Homo sapiens, RT112/84, RT112/84 cell line (FGFR3-fusion)
Source text: as §1, §2, §3

[4] = biological target: T1, FGFR1 (Homo sapiens, UniProt P11362); assay: Kinase binding assay (kinase-tagged T7 phage, affinity beads, qPCR), Kd; conditions: read-out: FGFR1 (Kd nM)
T1 construct: made in house; host or cells: E. coli (BL21-derived), T7 phage
Procedure, shortened: (§4)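 First, phage lysates carrying tagged kinase are made in E. coli at 32° C. Next, they are combined with blocked biotin-ligand streptavidin beads and compound at 0.9% final DMSO. Finally, eluted kinase is measured by qPCR and Kd is fitted with the Hill equation.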

[5] = biological target: T2, FGFR3 (V555M) (Homo sapiens, UniProt P22607, V555M); assay: as above; conditions: V555M mutant; read-out: FGFR3 (V555M) (Kd nM)
T2 construct: made in house; host or cells: E. coli (BL21-derived), T7 phage
Procedure, shortened: as §4

[6] = biological target: T3, FGFR4 (Homo sapiens, UniProt P22455); assay: as above; conditions: read-out: FGFR4 (Kd nM)
T3 construct: made in house; host or cells: E. coli (BL21-derived), T7 phage
Procedure, shortened: as §4

[7] = biological target: T4, FGFR3 (Homo sapiens, UniProt P22607); assay: as above; conditions: read-out: FGFR3 (Kd nM)
T4 construct: made in house; host or cells: E. coli (BL21-derived), T7 phage
Procedure, shortened: as §4

[8] = biological target: T5, FGFR2 (Homo sapiens, UniProt P21802); assay: as above; conditions: read-out: FGFR2 (Kd nM)
T5 construct: made in house; host or cells: E. coli (BL21-derived), T7 phage
Procedure, shortened: as §4

T2 sequence (P22607 23-806 V555M): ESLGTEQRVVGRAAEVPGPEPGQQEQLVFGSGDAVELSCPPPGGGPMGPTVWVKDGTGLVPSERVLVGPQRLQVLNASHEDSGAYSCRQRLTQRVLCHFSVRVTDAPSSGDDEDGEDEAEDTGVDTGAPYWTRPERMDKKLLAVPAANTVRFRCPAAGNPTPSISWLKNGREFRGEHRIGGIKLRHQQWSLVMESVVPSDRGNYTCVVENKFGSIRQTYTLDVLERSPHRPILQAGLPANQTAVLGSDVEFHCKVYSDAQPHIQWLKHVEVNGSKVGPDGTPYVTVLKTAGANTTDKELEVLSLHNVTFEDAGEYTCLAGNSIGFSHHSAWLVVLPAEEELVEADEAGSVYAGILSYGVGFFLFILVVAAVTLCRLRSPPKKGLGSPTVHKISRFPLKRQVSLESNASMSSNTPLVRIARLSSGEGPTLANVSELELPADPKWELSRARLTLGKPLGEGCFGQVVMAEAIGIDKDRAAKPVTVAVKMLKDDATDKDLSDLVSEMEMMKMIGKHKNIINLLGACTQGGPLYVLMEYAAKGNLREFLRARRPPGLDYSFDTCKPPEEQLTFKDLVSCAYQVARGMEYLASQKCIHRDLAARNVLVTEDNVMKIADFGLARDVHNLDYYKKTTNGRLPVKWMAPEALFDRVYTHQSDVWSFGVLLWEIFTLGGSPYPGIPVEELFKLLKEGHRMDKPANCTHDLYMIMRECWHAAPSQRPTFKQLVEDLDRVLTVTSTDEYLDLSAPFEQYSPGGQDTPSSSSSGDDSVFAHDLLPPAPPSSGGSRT
T3 sequence (P22455 22-802): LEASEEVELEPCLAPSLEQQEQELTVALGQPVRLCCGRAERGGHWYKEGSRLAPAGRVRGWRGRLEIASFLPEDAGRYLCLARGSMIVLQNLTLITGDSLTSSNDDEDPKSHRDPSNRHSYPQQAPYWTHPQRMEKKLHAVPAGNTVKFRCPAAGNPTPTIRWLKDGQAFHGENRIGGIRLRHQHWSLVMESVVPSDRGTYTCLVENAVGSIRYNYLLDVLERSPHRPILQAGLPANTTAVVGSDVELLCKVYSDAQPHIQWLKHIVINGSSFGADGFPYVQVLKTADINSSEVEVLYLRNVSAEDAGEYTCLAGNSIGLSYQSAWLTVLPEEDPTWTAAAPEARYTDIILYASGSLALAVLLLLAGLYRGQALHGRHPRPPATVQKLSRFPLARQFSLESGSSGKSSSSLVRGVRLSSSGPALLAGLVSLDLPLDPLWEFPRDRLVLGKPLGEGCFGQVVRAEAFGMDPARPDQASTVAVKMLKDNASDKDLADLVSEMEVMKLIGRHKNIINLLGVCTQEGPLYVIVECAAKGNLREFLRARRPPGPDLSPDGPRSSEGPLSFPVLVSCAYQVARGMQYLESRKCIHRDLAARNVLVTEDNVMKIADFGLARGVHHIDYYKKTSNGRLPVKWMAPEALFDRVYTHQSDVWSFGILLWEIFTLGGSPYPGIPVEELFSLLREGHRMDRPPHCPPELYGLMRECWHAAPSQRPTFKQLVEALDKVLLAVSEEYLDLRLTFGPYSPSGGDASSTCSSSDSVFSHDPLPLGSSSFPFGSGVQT
T1 sequence (P11362 22-822): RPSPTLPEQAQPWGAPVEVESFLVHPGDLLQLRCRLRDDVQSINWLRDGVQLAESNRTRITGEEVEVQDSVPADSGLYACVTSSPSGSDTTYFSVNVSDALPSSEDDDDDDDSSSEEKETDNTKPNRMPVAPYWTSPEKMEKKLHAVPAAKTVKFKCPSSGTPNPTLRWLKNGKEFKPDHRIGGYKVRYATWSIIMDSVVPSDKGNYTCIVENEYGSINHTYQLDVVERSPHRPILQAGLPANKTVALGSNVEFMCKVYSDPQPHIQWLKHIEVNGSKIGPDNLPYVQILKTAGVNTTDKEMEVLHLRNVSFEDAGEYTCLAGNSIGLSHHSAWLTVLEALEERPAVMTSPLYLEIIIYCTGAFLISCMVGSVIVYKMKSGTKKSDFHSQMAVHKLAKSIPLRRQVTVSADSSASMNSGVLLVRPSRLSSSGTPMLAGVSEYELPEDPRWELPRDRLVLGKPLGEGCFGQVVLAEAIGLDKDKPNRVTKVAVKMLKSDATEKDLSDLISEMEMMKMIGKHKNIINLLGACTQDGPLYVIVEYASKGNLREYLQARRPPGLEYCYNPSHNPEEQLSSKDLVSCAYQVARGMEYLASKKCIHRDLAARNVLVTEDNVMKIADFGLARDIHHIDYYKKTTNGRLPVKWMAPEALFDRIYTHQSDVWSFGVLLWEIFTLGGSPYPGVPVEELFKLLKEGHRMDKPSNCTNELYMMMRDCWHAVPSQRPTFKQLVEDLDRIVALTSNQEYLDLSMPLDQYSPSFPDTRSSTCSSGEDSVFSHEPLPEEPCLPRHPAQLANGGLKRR
T4 sequence (P22607 23-806): as the sequence (P22607 23-806 V555M) above, with M533V counted along it
T5 sequence (P21802 22-821): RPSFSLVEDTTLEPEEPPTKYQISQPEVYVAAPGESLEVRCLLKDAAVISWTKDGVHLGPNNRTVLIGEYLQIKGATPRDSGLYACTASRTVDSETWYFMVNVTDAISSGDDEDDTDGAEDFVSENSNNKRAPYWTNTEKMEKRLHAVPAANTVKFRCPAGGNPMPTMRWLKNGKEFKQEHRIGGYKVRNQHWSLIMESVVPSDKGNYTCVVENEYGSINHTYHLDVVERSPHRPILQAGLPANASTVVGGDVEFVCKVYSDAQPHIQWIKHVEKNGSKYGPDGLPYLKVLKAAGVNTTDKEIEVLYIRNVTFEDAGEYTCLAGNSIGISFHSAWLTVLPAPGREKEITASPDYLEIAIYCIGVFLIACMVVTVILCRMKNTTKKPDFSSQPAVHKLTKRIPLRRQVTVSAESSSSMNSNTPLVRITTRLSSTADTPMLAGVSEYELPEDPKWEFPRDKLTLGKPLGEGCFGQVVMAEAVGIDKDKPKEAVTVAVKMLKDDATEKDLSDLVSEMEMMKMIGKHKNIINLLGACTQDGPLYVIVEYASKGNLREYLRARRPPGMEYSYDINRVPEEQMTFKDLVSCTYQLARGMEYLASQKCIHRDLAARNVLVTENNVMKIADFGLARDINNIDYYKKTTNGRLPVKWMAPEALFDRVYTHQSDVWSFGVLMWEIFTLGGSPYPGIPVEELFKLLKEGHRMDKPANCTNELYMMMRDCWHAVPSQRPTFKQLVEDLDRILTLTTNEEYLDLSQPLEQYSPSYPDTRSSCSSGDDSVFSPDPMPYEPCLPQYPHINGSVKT

SMILES | IC50 [1] | IC50 [2] | IC50 [3] | Kd [4] | Kd [5] | Kd [6] | Kd [7] | Kd [8]
CNC1(C)CN(c2ccc(-c3n[nH]c4cc(F)c(O[C@H](C)c5c(Cl)cncc5Cl)cc34)cn2)C1 [Example 59, 1-[5-[5-[(1R)-1-(3,5-dichloro-4-pyridyl)ethoxy]-6-fluoro-1H-indazol-3-yl]-2-pyridyl]-N,3-dimethyl-azetidin-3-amine] | 200 to 1000 nM | 200 to 1000 nM | 0.1 to 50 nM | 1 to 50 nM | 1 to 50 nM | 1 to 50 nM | 1 to 50 nM | 1 to 50 nM
C[C@@H](Oc1cc2c(-c3cnc(N4CC5(CC5)C4)nc3)n[nH]c2cc1F)c1c(Cl)cncc1Cl [Example 60, 3-[2-(5-azaspiro[2.3]hexan-5-yl)pyrimidin-5-yl]-5-[(1R)-1-(3,5-dichloro-4-pyridyl)ethoxy]-6-fluoro-1H-indazole] | > 1000 nM | > 1000 nM | 50 to 200 nM | 50 to 300 nM | 1 to 50 nM | 1 to 50 nM | 1 to 50 nM | 300 to 1000 nM
COc1cc2[nH]nc(-c3cnc(N4CC5(CC5)C4)c(C#N)c3)c2cc1O[C@H](C)c1c(Cl)cncc1Cl [Example 65, 2-(5-azaspiro[2.3]hexan-5-yl)-5-[5-[(1R)-1-(3,5-dichloro-4-pyridyl)ethoxy]-6-methoxy-1H-indazol-3-yl]pyridine-3-carbonitrile] | 200 to 1000 nM | > 1000 nM | 0.1 to 50 nM |  |  |  |  | 1 to 50 nM
C[C@@H](Oc1cc2c(-c3ccc(N4CC(C)(CP(C)(C)=O)C4)nc3)n[nH]c2cc1F)c1c(Cl)cncc1Cl [Example 67, (R)-((1-(5-(5-(1-(3,5-dichloropyridin-4-yl)ethoxy)-6-fluoro-1H-indazol-3-yl)pyridin-2-yl)-3-methylazetidin-3-yl)methyl)dimethylphos-phine oxide] | 200 to 1000 nM | 0.1 to 50 nM | 0.1 to 50 nM | 1 to 50 nM | 1 to 50 nM | 1 to 50 nM | 1 to 50 nM | 1 to 50 nM
Cc1ncc(Cl)c([C@@H](C)Oc2ccc3[nH]nc(-c4ccc(N5CC(C)(NC6COC6)C5)nc4)c3c2)c1Cl [Example 70, 1-[5-[5-[(1R)-1-(3,5-dichloro-2-methyl-4-pyridyl)ethoxy]-1H-indazol-3-yl]-2-pyridyl]-3-methyl-N-(oxetan-3-yl)azetidin-3-amine] | 50 to 200 nM | 0.1 to 50 nM | 0.1 to 50 nM | 1 to 50 nM | 1 to 50 nM | 1 to 50 nM | 1 to 50 nM | 1 to 50 nM
Cc1ncc(Cl)c([C@@H](C)Oc2ccc3[nH]nc(-c4ccc(N5CC(C)(NC6CCC6)C5)nc4)c3c2)c1Cl [Example 71, N-cyclobutyl-1-[5-[5-[(1R)-1-(3,5-dichloro-2-methyl-4-pyridyl)ethoxy]-1H-indazol-3-yl]-2-pyridyl]-3-methyl-azetidin-3-amine] | 200 to 1000 nM | 50 to 200 nM | 0.1 to 50 nM | 1 to 50 nM | 1 to 50 nM | 1 to 50 nM | 1 to 50 nM | 1 to 50 nM
CCN(CC)C1(C)CN(c2ccc(-c3n[nH]c4ccc(O[C@H](C)c5c(Cl)cnc(C)c5Cl)cc34)cn2)C1 [Example 72, 1-[5-[5-[(1R)-1-(3,5-dichloro-2-methyl-4-pyridyl)ethoxy]-1H-indazol-3-yl]-2-pyridyl]-N,N-diethyl-3-methyl-azetidin-3-amine] | 200 to 1000 nM | 50 to 200 nM | 0.1 to 50 nM | 1 to 50 nM | 1 to 50 nM | 1 to 50 nM | 1 to 50 nM | 1 to 50 nM
C[C@@H](Oc1ccc2[nH]nc(-c3ccc(N4CC(C)(CN(C)S(C)(=O)=O)C4)nc3)c2c1)c1c(Cl)cncc1Cl [Example 74, (R)-N-((1-(5-(5-(1-(3,5-dichloropyridin-4-yl)ethoxy)-1H-indazol-3-yl)pyridin-2-yl)-3-methylazetidin-3-yl)methyl)-N-methylmethanesulfona-mide] | 50 to 200 nM | 0.1 to 50 nM | 0.1 to 50 nM | 1 to 50 nM | 1 to 50 nM | 1 to 50 nM | 1 to 50 nM | 1 to 50 nM

Continued, values first:

IC50 [1] | IC50 [2] | IC50 [3] | Kd [4] | Kd [5] | Kd [6] | Kd [7] | Kd [8] | SMILES
50 to 200 nM | 0.1 to 50 nM | 0.1 to 50 nM | 1 to 50 nM | 1 to 50 nM | 1 to 50 nM | 1 to 50 nM | 1 to 50 nM | C[C@@H](Oc1ccc2[nH]nc(-c3ccc(N4CC(C)(NC5CCC5)C4)nc3)c2c1)c1c(Cl)cncc1Cl [Example 63, (R)-N-cyclobutyl-1-(5-(5-(1-(3,5-dichloropyridin-4-yl)ethoxy)-1H-indazol-3-yl)pyridin-2-yl)-3-methylazetidin-3-amine]
0.1 to 50 nM | 0.1 to 50 nM | 0.1 to 50 nM | 1 to 50 nM | 1 to 50 nM | 1 to 50 nM | 1 to 50 nM | 1 to 50 nM | C[C@@H](Oc1ccc2[nH]nc(-c3ccc(N4CC(C)(NC5COC5)C4)nc3)c2c1)c1c(Cl)cncc1Cl [Example 64, (R)-1-(5-(5-(1-(3,5-dichloropyridin-4-yl)ethoxy)-1H-indazol-3-yl)pyridin-2-yl)-3-methyl-N-(oxetan-3-yl)azetidin-3-amine]
0.1 to 50 nM | 0.1 to 50 nM | 0.1 to 50 nM | 1 to 50 nM | 1 to 50 nM | 1 to 50 nM | 1 to 50 nM | 1 to 50 nM | COc1cc2[nH]nc(-c3ccc(N4CC(C)(N[C@H]5CCOC5)C4)nc3)c2cc1O[C@H](C)c1c(Cl)cncc1Cl [Example 66, 1-(5-(5-((R)-1-(3,5-dichloropyridin-4-yl)ethoxy)-6-methoxy-1H-indazol-3-yl)pyridin-2-yl)-3-methyl-N-((S)-tetrahydrofuran-3-yl)azetidin-3-amine]
0.1 to 50 nM | 0.1 to 50 nM | 0.1 to 50 nM | 1 to 50 nM | 1 to 50 nM | 1 to 50 nM | 1 to 50 nM | 1 to 50 nM | COc1cc2[nH]nc(-c3ccc(N4CC(C)(N[C@@H]5CCOC5)C4)nc3)c2cc1O[C@H](C)c1c(Cl)cncc1Cl [Example 73, 1-(5-(5-((R)-1-(3,5-dichloropyridin-4-yl)ethoxy)-6-methoxy-1H-indazol-3-yl)pyridin-2-yl)-3-methyl-N-((R)-tetrahydrofuran-3-yl)azetidin-3-amine]
0.1 to 50 nM | 0.1 to 50 nM | 0.1 to 50 nM | 1 to 50 nM | 1 to 50 nM | 1 to 50 nM | 1 to 50 nM | 1 to 50 nM | C[C@@H](Oc1ccc2[nH]nc(-c3ccc(N4CC(C)(NCCO)C4)nc3)c2c1)c1c(Cl)cncc1Cl [Example 89, (R)-2-((1-(5-(5-(1-(3,5-dichloropyridin-4-yl)ethoxy)-1H-indazol-3-yl)pyridin-2-yl)-3-methylazetidin-3-yl)amino)ethan-1-ol]
0.1 to 50 nM | 0.1 to 50 nM | 0.1 to 50 nM | 1 to 50 nM | 1 to 50 nM | 1 to 50 nM | 1 to 50 nM | 1 to 50 nM | C[C@H](O)CNC1(C)CN(c2ccc(-c3n[nH]c4ccc(O[C@H](C)c5c(Cl)cncc5Cl)cc34)cn2)C1 [Example 90, (S)-1-((1-(5-(5-((R)-1-(3,5-dichloropyridin-4-yl)ethoxy)-1H-indazol-3-yl)pyridin-2-yl)-3-methylazetidin-3-yl)amino)propan-2-ol]
0.1 to 50 nM | 0.1 to 50 nM | 0.1 to 50 nM | 1 to 50 nM | 1 to 50 nM | 1 to 50 nM | 1 to 50 nM | 1 to 50 nM | C[C@@H](O)CNC1(C)CN(c2ccc(-c3n[nH]c4ccc(O[C@H](C)c5c(Cl)cncc5Cl)cc34)cn2)C1 [Example 91, (R)-1-((1-(5-(5-((R)-1-(3,5-dichloropyridin-4-yl)ethoxy)-1H-indazol-3-yl)pyridin-2-yl)-3-methylazetidin-3-yl)amino)propan-2-ol]
